Data from patent US20140271765A1 (priority 2013, published 2014).
Several values for one entry are separate records, joined by “and”; a condition that tells them apart may be missing. Equal entries are not always repeated. Where two headings read alike, the source gives them in different places.

Legend:
[1] = in vivo
[2] = dog, in vivo
[3] = buprenorphine
[4] = human, in vivo
[5] = 2 implants, individual subjects

For CO[C@@]12CC[C@@]3(C[C@@H]1[C@](C)(O)C(C)(C)C)[C@H]1Cc4ccc(O)c5c4[C@@]3(CCN1CC1CC1)[C@H]2O5 [buprenorphine], the “shortest half-life during the plateau phase” value ([1]; human) was 25 weeks, the “Cave from Day 21 to removal, higher in the higher dose group as compared with the lower dose group” value [1] was 93% and the “Cmax, higher in the higher dose group as compared with the lower dose group” value [1] was 62%. The “reduction in buprenorphine concentrations from Day 17 to removal” value [1] was no more than 50%, the “time to reach plateau phase” value [1] was no more than 21 days and the “changes in plasma buprenorphine exposure with external heat” value [2] was “No consistent changes”. The “mean steady state concentration (Css1)” value [2] was 3.90 ng/mL, the “mean steady-state concentration (Css3)” value [2] was 3.86 ng/mL and the “mean steady-state plasma buprenorphine concentration (Css2)” value [2] was 4.37 ng/mL. The “steady state concentration (Css1), range” value [2] was 3.01 to 4.77 ng/mL, the “steady-state concentration (Css3), range” value [2] was 2.73 to 4.84 ng/mL and the “steady-state plasma buprenorphine concentration (Css2), range” value [2] was 2.61 to 5.42 ng/mL. For the same compound, the “Model predicted concentration at removal” value ([3]; 2 implants, Mean) was 330.7 pg/mL, the “Time from implant to reaching 2x last concentration” value (“Time from implant” below) ([3]; 2 implants, Mean) was 242.0 h and the “α-Half Life” value ([3]; 2 implants, Mean) was 12.75 h. For the same compound, the “β-Half Life” value ([3]; 2 implants, Mean) was 133.1 h, the γ-Half life ([3]; 2 implants, Mean) was 160.7 weeks and the “Model predicted concentration at removal” value ([3]; 2 implants, Median) was 340.0 pg/mL. For the same compound, the “Time from implant” value ([3]; 2 implants, Median) was 231.0 h, the “α-Half Life” value ([3]; 2 implants, Median) was 7.55 h and the “β-Half Life” value ([3]; 2 implants, Median) was 124.0 h. The γ-Half life ([3]; 2 implants, Median) was 77.9 weeks, the “Model predicted concentration at removal” value [3, 5] was 263 pg/mL and 342 pg/mL (2×) and 252 pg/mL and 447 pg/mL and 338 pg/mL and the “Time from implant” value [3, 5] was 396 h and 259 h and 313 h and 180 h and 101 h and 203 h. The “α-Half Life” value [3, 5] was 7.55 h and 4.17 h and 115 h and 39.7 h and 2.94 h and 9.41 h, the “β-Half Life” value [3, 5] was 124 h and 206 h and 3578 h and 174 h and 52.3 h and 109 h and the γ-Half life [3, 5] was 29.9 weeks and 457 weeks and 35.7 weeks and 120 weeks. For the same compound, the “Model predicted concentration at removal” value ([3]; 4 implants, Mean) was 6.11 pg/mL, the “Time from implant” value ([3]; 4 implants, Mean) was 715.7 h and the “α-Half Life” value ([3]; 4 implants, Mean) was 3230 h. For the same compound, the “β-Half Life” value ([3]; 4 implants, Mean) was 15.95 h, the “Model predicted concentration at removal” value ([3]; 4 implants, Median) was 5.76 pg/mL and the “Time from implant” value ([3]; 4 implants, Median) was 706.5 h. The “α-Half Life” value ([3]; 4 implants, Median) was 3020 h, the “β-Half Life” value ([3]; 4 implants, Median) was 15.75 h and the “duration of plateau of therapeutically-effective plasma level” value [4] was “at least 24 weeks”. For the same compound, the “time until plasma concentration reaches a plateau” value [4] was “about a few days to about two weeks”.
